Assay results: patent publication US6737383B1, “Herbicidal oxadiazolidines” (priority 1999, dated 2004)

Tests used:
sugar beet = test: Test B pre/postemergence sugar beet; type: in vivo, Beta vulgaris
Summary of the method: (§1)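 Response is a visual 0-to-10 score relative to untreated plants, where 0 means no effect and 10 means complete control, taken twelve to sixteen days after application. Treatments went onto soil at planting and onto foliage of 1- to 4-leaf plants, using a surfactant-containing non-phytotoxic solvent.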

corn = test: Test B pre/postemergence corn; type: in vivo, Zea mays
Summary of the method: as §1

blackgrass = test: Test B pre/postemergence blackgrass; type: in vivo, Alopecurus myosuroides
Summary of the method: as §1

morningglory = test: Test B pre/postemergence morningglory; type: in vivo, Ipomoea hederacea
Description: (§2) Seeds of bedstraw (Galium aparine), blackgrass (Alopecurus myosuroides), surinam grass (Brachiaria decumbens), cocklebur (Xanthium strumarium), corn (Zea mays), crabgrass (Digitaria sanguinalis), giant foxtail (Setaria faberii), morningglory (Ipomoea hederacea), pigweed (Amaranthus retroflexus), rape (Brassica napus), soybean (Glycine max), sugar beet (Beta vulgaris), velvetleaf (Abutilon theophrasti), wheat (Triticum aestivum), wild oat (Avena fatua) and purple nutsedge (Cyperus rotundus) tubers were planted and treated preemnergence with test chemicals formulated in a non-phytotoxic solvent mixture which included a surfactant.
(§3) At the same time, these crop and weed species were also treated with postemergence applications of test chemicals formulated in the same manner. Plants ranged in height from 2 to 18 cm (1- to 4-leaf stage) for postemergence treatments. Plant species in the flood test consisted of rice (Oryza sativa), smallflower flatsedge (Cyperus difformis), duck salad (Heteranthera limosa) and bamyardgrass (Echinochloa crus-galli) grown to the 2-leaf stage for testing. Treated plants and controls were maintained in a greenhouse for twelve to sixteen days, after which all species were compared to controls and visually evaluated. Plant response ratings, summarized in Table B, are based on a scale of 0 to 10 where 0 is no effect and 10 is complete control. A dash (−) response means no test result.

wheat = test: Test B pre/postemergence wheat; type: in vivo, Triticum aestivum
Description: as §2, §3

bedstraw = test: Test B pre/postemergence bedstraw; type: in vivo, Galium aparine
Summary of the method: as §1

soybean = test: Test B pre/postemergence soybean; type: in vivo, Glycine max
Summary of the method: as §1

crabgrass = test: Test B pre/postemergence crabgrass; type: in vivo, Digitaria sanguinalis
Description: as §2, §3

purple nutsedge = test: Test B pre/postemergence purple nutsedge; type: in vivo, Cyperus rotundus
Description: as §2, §3

giant foxtail = test: Test B pre/postemergence giant foxtail; type: in vivo, Setaria faberii
Description: as §2, §3

cocklebur = test: Test B pre/postemergence cocklebur; type: in vivo, Xanthium strumarium
Description: as §2, §3

rape = test: Test B pre/postemergence rape; type: in vivo, Brassica napus
Summary of the method: as §1

wild oat = test: Test B pre/postemergence wild oat; type: in vivo, Avena fatua
Summary of the method: as §1

velvetleaf = test: Test B pre/postemergence velvetleaf; type: in vivo, Abutilon theophrasti
Summary of the method: as §1

pigweed = test: Test B pre/postemergence pigweed; type: in vivo, Amaranthus retroflexus
Description: as §2, §3

surinam grass = test: Test B pre/postemergence surinam grass; type: in vivo, Brachiaria decumbens
Summary of the method: as §1

[1] = Postemergence, Rate 125 g/ha, scale of 0 to 10 where 0 is no effect and 10 is complete control
[2] = Preemergence, Rate 62 g/ha, scale 0 to 10 (0 no effect, 10 complete control)
[3] = Preemergence, Rate 125 g/ha, 0 is no effect, 10 is complete control
[4] = Preemergence, Rate 250 g/ha, scale 0 to 10, 0 is no effect, 10 is complete control
[5] = Preemergence, Rate 500 g/ha, scale 0 to 10 (0 no effect, 10 complete control)
[6] = Rate 62 g/ha, Postemergence, scale of 0 to 10 where 0 is no effect and 10 is complete control
[7] = Rate 250 g/ha, Postemergence, scale 0 to 10, 0 is no effect, 10 is complete control
[8] = Rate 500 g/ha, Postemergence, scale 0 to 10

CC(C)N(C(=O)n1oc(=O)n(C(C)c2ccccc2)c1=O)c1ccc(Cl)cc1 (centres unmarked) [Compound 133]
Sugarbeets plant response rating (sugar beet; [1]): 0 | Sugarbeets plant response rating (sugar beet; [2]): 0 | Sugarbeets plant response rating (0 to 10 scale) (sugar beet; [3]): 2 | Sugarbeets plant response rating (sugar beet; [4]): 3 | Sugarbeets plant response rating (sugar beet; [5]): 5 | Sugarbeets plant response rating (sugar beet; [6]): 0 | Plant response rating, Sugarbeets (sugar beet; [7]): 0 | Sugarbeets plant response rating (sugar beet; [8]): 2 | Corn plant response rating (corn; [1]): 0 | Corn plant response rating (corn; [2]): 0 | Corn plant response rating (0 to 10 scale) (corn; [3]): 0 | Corn plant response rating (corn; [4]): 0 | Corn plant response rating (corn; [5]): 0 | Corn plant response rating (corn; [6]): 0 | Plant response rating, Corn (corn; [7]): 0 | Corn plant response rating (corn; [8]): 0 | Blackgrass plant response rating (blackgrass; [1]): 2 | Blackgrass plant response rating (blackgrass; [2]): 3 | Blackgrass plant response rating (0 to 10 scale) (blackgrass; [3]): 3 | Blackgrass plant response rating (blackgrass; [4]): 3 | Blackgrass plant response rating (blackgrass; [5]): 5 | Blackgrass plant response rating (blackgrass; [6]): 0 | Plant response rating, Blackgrass (blackgrass; [7]): 2 | Blackgrass plant response rating (blackgrass; [8]): 4 | Morningglory plant response rating (morningglory; [1]): 3 | Morningglory plant response rating (morningglory; [2]): 0 | Morningglory plant response rating (0 to 10 scale) (morningglory; [3]): 0 | Morningglory plant response rating (morningglory; [4]): 0 | Morningglory plant response rating (morningglory; [5]): 0 | Morningglory plant response rating (morningglory; [6]): 2 | Plant response rating, Morningglory (morningglory; [7]): 4 | Morningglory plant response rating (morningglory; [8]): 8 | Wheat plant response rating (wheat; [1]): 0 | Wheat plant response rating (wheat; [2]): 0 | Wheat plant response rating (0 to 10 scale) (wheat; [3]): 0 | Wheat plant response rating (wheat; [4]): 0 | Wheat plant response rating (wheat; [5]): 0 | Wheat plant response rating (wheat; [6]): 0 | Plant response rating, Wheat (wheat; [7]): 0 | Wheat plant response rating (wheat; [8]): 2 | Bedstraw plant response rating (bedstraw; [1]): 4 | Bedstraw plant response rating (bedstraw; [2]): 0 | Bedstraw plant response rating (0 to 10 scale) (bedstraw; [3]): 0 | Bedstraw plant response rating (bedstraw; [4]): 0 | Bedstraw plant response rating (bedstraw; [5]): 0 | Bedstraw plant response rating (bedstraw; [6]): 0 | Plant response rating, Bedstraw (bedstraw; [7]): 7 | Bedstraw plant response rating (bedstraw; Rate 500 g/ha, Postemergence, scale 0 to 10, 0 no effect, 10 complete control): 7 | Soybean plant response rating (soybean; [1]): 3 | Soybean plant response rating (soybean; [2]): 0 | Soybean plant response rating (0 to 10 scale) (soybean; [3]): 0 | Soybean plant response rating (soybean; [4]): 0 | Soybean plant response rating (soybean; [5]): 0 | Soybean plant response rating (soybean; [6]): 1 | Plant response rating, Soybean (soybean; [7]): 3 | Soybean plant response rating (soybean; [8]): 3 | Crabgrass plant response rating (crabgrass; [1]): 2 | Crabgrass plant response rating (crabgrass; [2]): 1 | Crabgrass plant response rating (0 to 10 scale) (crabgrass; [3]): 3 | Crabgrass plant response rating (crabgrass; [4]): 5 | Crabgrass plant response rating (crabgrass; [5]): 5 | Crabgrass plant response rating (crabgrass; [6]): 0 | Plant response rating, Crabgrass (crabgrass; [7]): 4 | Crabgrass plant response rating (crabgrass; [8]): 4 | Nutsedge plant response rating (purple nutsedge; [1]): 0 | Nutsedge plant response rating (purple nutsedge; [2]): 0 | Nutsedge plant response rating (0 to 10 scale) (purple nutsedge; [3]): 0 | Nutsedge plant response rating (purple nutsedge; [4]): 0 | Nutsedge plant response rating (purple nutsedge; [5]): 0 | Nutsedge plant response rating (purple nutsedge; [6]): 0 | Plant response rating, Nutsedge (purple nutsedge; [7]): 0 | Nutsedge plant response rating (purple nutsedge; [8]): 0 | Giant foxtail plant response rating (giant foxtail; [1]): 2 | Giant foxtail plant response rating (giant foxtail; [2]): 3 | Giant foxtail plant response rating (0 to 10 scale) (giant foxtail; [3]): 7 | Giant foxtail plant response rating (giant foxtail; [4]): 9 | Giant foxtail plant response rating (giant foxtail; [5]): 10 | Giant foxtail plant response rating (giant foxtail; [6]): 0 | Plant response rating, Giant foxtail (giant foxtail; [7]): 3 | Giant foxtail plant response rating (giant foxtail; [8]): 4 | Cocklebur plant response rating (cocklebur; [1]): 2 | Cocklebur plant response rating (cocklebur; [2]): 0 | Cocklebur plant response rating (0 to 10 scale) (cocklebur; [3]): 0 | Cocklebur plant response rating (cocklebur; [4]): 0 | Cocklebur plant response rating (cocklebur; [5]): 2 | Cocklebur plant response rating (cocklebur; [6]): 2 | Plant response rating, Cocklebur (cocklebur; [7]): 2 | Cocklebur plant response rating (cocklebur; [8]): 3 | Rape plant response rating (rape; [1]): 0 | Rape plant response rating (rape; [2]): 0 | Rape plant response rating (0 to 10 scale) (rape; [3]): 0 | Rape plant response rating (rape; [4]): 0 | Rape plant response rating (rape; [5]): 2 | Rape plant response rating (rape; [6]): 0 | Plant response rating, Rape (rape; [7]): 0 | Rape plant response rating (rape; [8]): 0 | Wild oats plant response rating (wild oat; [1]): 0 | Wild oats plant response rating (wild oat; [2]): 0 | Wild oats plant response rating (0 to 10 scale) (wild oat; [3]): 2 | Wild oats plant response rating (wild oat; [4]): 2 | Wild oats plant response rating (wild oat; [5]): 4 | Wild oats plant response rating (wild oat; [6]): 0 | Plant response rating, Wild oats (wild oat; [7]): 0 | Wild oats plant response rating (wild oat; [8]): 0 | Velvetleaf plant response rating (velvetleaf; [1]): 0 | Velvetleaf plant response rating (velvetleaf; [2]): 0 | Velvetleaf plant response rating (0 to 10 scale) (velvetleaf; [3]): 0 | Velvetleaf plant response rating (velvetleaf; [4]): 2 | Velvetleaf plant response rating (velvetleaf; [5]): 2 | Velvetleaf plant response rating (velvetleaf; [6]): 0 | Plant response rating, Velvetleaf (velvetleaf; [7]): 2 | Velvetleaf plant response rating (velvetleaf; [8]): 5 | Redroot pigweed plant response rating (pigweed; [1]): 0 | Redroot pigweed plant response rating (pigweed; [2]): 0 | Redroot pigweed plant response rating (0 to 10 scale) (pigweed; [3]): 0 | Redroot pigweed plant response rating (pigweed; [4]): 0 | Redroot pigweed plant response rating (pigweed; [5]): 3 | Redroot pigweed plant response rating (pigweed; [6]): 0 | Plant response rating, Redroot pigweed (pigweed; [7]): 0 | Redroot pigweed plant response rating (pigweed; [8]): 2 | B. signalgrass plant response rating (surinam grass; [1]): 0 | B. signalgrass plant response rating (surinam grass; [2]): 0 | B. signalgrass plant response rating (0 to 10 scale) (surinam grass; [3]): 5 | B. signalgrass plant response rating (surinam grass; [4]): 5 | B. signalgrass plant response rating (surinam grass; [5]): 7 | B. signalgrass plant response rating (surinam grass; [6]): 0 | Plant response rating, B. signalgrass (surinam grass; [7]): 2 | B. signalgrass plant response rating (surinam grass; Rate 500 g/ha, Postemergence, scale of 0 to 10 where 0 is no effect and 10 is complete control): 2
